Where two headings read alike, the source gives them in different places.
Tests used:
[1] = test system: progranulin protein in CSF and plasma; experiment: Progranulin levels in rat CSF and plasma (ELISA); type: in vivo, Sprague Dawley rats; details: normal rats, 100 mg/kg intra-peritoneally
Experimental: Sprague Dawley rats (n=12/group; Charles River) were dosed intra-peritoneally with either vehicle (Solutol HS 15/Ethanol (3:2 v/v)) or with a dose of 100 mg/kg of Compound 1 prepared in the same vehicle. EDTA-Plasma and CSF were collected after 4 and 8 hours of treatment, and progranulin levels were assessed by ELISA (Adipogen, Incheon, South Korea) using a 1:2 dilution for CSF (FIG. 6A) and a 1:25 dilution for plasma (FIG. 6B).

[2] = Maximum Tolerated Dose in humans, oral dosing; type: in vivo; details: healthy volunteers
[3] = Brain penetration (brain:plasma ratio of drug levels) after acute and repeated dosing; type: in vivo; details: rodents
[4] = test system: progranulin protein in lymphoblasts from progranulin mutation carriers; experiment: Progranulin protein expression in FTLD patient lymphoblast cell lines (ELISA); type: cell-based, human; details: 3 μM, after 24 h
Experimental: (§1) Immortalized (Epstein-Barr-Virus) B-lymphocytes isolated from the peripheral blood of patients subject harboring different mutations in the granulin gene were used to measure effects of compounds on progranulin mRNA and protein expression. The cell lines were maintained in complete growth medium (cGM), comprised of RPMI 1640 medium supplemented with 15% heat-inactivated FBS, 4 mM L-Glutamine and 1% Penicillin/Streptomycin. Cells were seeded into 24-well tissue-culture plates at a density of 400,000-500,000 cells per well in cGM. Following an overnight incubation, the cells were treated with 0.3 or 3 μM of Compound 1. Following an 8- or 24-hour exposure to Compound 1, cells were collected, spun, and the resulting cell pellets underwent a single rinse in chilled PBS.
(§2) For analysis of progranulin protein expression, cell pellets were re-suspended in 150 μl of chilled RIPA Lysis Buffer supplemented with a protease-inhibitor cocktail and incubated for 15-20 minutes at 4° C. to allow for cell lysis. Total protein concentrations of each sample were determined by performing a BCA protein assay (Pierce). Quantitative determination of Progranulin protein levels was performed by ELISA (AdipoGen, Incheon, South Korea), using a 1:20 dilution of the cell lysate following the manufacturer protocol. […]

[5] = test system: progranulin mRNA in primary fibroblasts from progranulin mutation carriers; experiment: Progranulin mRNA expression in primary fibroblasts from progranulin mutation carriers (qPCR); type: cell-based, human; details: 3 μM, after 8 h
Experimental: (§3) For analysis of progranulin mRNA expression, samples were analyzed as described in Example 1, with the exception that probes specific for the human granulin gene (Applied Biosystems, Carlsbad, Calif.) were used.
(§4) Primary fibroblasts from patients harboring different mutations in the progranulin gene were isolated and maintained in complete growth medium (cGM), comprised of D-MEM supplemented with 10% heat-inactivated FBS and 1% Penicillin/Streptomycin. The fibroblasts were seeded into 6-well tissue-culture plates at a density of 150,000-190,000 cells per well in cGM. Following overnight incubation, the cells were treated with 0.3 or 3 μM of Compound 1. Analysis of progranulin mRNA expression was performed as described in Example 4. Analysis of progranulin protein was performed as described in Example 4.

[6] = test system: progranulin protein in immortalized lymphoblasts from a normal human subject; experiment: Progranulin protein by western blot in immortalized lymphoblasts from a normal human subject; type: cell-based; details: 24 h
Experimental: Cellular protein from immortalized (Epstein-Barr-Virus) B-lymphocytes isolated from the peripheral blood of normal human volunteers was isolated as described in Example 4. Cells were treated with Compound 1 for 24 h. For Western Blotting analysis of progranulin protein, 50 μg of total cellular protein were separated on a 4-12% Bis-Tris Poly-Acrylamide gel using MOPS Running Buffer, transferred to a PVDF membrane and probed with a R & D Systems (Minneapolis, Minn.) mouse monoclonal anti-human progranulin antibody, followed by an IRDye secondary antibody (Rockland). Detection was performed using the Li-COR Odyssey imaging system. Progranulin signals (Integrated Intensity after background subtraction) were quantified using Li-COR Odyssey software.

[7] = test system: progranulin mRNA expression in primary cortical neurons; experiment: Progranulin mRNA expression by quantitative PCR in primary cortical neurons; type: cell-based, rat; details: for increase in progranulin mRNA expression: after 8 h of treatment, primary cortical neurons
Experimental: (§5) Primary cortical (Cx) and hippocampal (Hp) neurons are derived from E17 Sprague-Dawley rats and cultured in 24-well plates (325,000 cells/well for Cx and 250,000 cells/well for Hp). Half of the medium is replaced with fresh medium every four days. On day 10 of culture, neurons are incubated in the presence of different concentrations (0.1-3 μM) of a compound of the invention, e.g., Compound 1, for 2-24 h. At specific time points, conditioned medium is removed and frozen until needed for ELISA assay. Cells are washed with PBS and RNA is extracted with Qiazol reagent using the RNeasy kit from Qiagen (Valencia, Calif.) following manufacturer instructions. RNA is then transcribed into cDNA using the high capacity cDNA reverse transcription kit from Applied Biosystems (Carlsbad, Calif.) according to kit instructions.
Relative progranulin gene expression is measured by quantitative PCR using rat-specific probes (Applied Biosystems, Carlsbad, Calif.) for the granulin gene and for Rp113a as a reference gene. The ΔΔCt method is used for calculations of relative gene expression levels (Pfaffl, Nucleic Acids Res., 2001). This method compares expression of the different genes (reference and gene of interest) in cells treated with vehicle versus the compound of the invention. Moreover, this measurement and analysis of mRNA levels is expected to be predictive of the expression of progranulin protein levels.
Neuronal granulin gene expression was measured at different time points as described in Example 1 (1, 4, 6, 8, 10, 18 and 24 h) following treatment with (Z)-4-(dibenzo[b,f][1,4]oxazepin-11-yl)-N-hydroxybenzamide

[8] = test system: progranulin protein in cerebral cortex; experiment: Progranulin protein levels in mouse cerebral cortex (ELISA); type: in vivo, C57BL/6 mice; details: normal mice, 100 mg/kg oral, 8 h after acute dosing
Experimental: (§6) C57BL/6 mice (n=6/group; Charles River) were treated with either vehicle (1% carboxymethylcellulose-medium viscosity/0.5% Tween 80 (99.5:0.5 v/v)) or with an oral dose of 100 mg/kg of Compound 1 prepared in the same vehicle. Animals were sacrificed at specific time points and the brain extracted. Left and right hemisphere of the cerebral cortex were separated and used for RNA and protein extractions.
Proteins were extracted in 50 mM Tris pH 7.4/150 mM NaCl/0.1% SDS with protease inhibitors using an extraction ratio of 200 mg of brain tissue per ml buffer. Sample was spun for 20 minutes at 16,200 g and supernatant collected. Progranulin levels were measured using a 1:4 dilution of the tissue extract (FIG. 5B) with a mouse ELISA kit from Adipogen (Incheon, South Korea) according to the manufacturer instructions. Progranulin levels were normalized to total protein concentration as measured by the BCA method (Pierce).

[9] = test system: progranulin mRNA in lymphoblasts from progranulin mutation carriers; experiment: Progranulin mRNA expression in FTLD patient lymphoblast cell lines (qPCR); type: cell-based, human; details: 3 μM, after 24 h
Experimental: as §1, §3

[10] = test system: progranulin protein in primary fibroblasts from progranulin mutation carriers; experiment: Progranulin protein expression in primary fibroblasts from progranulin mutation carriers (ELISA); type: cell-based, human; details: 0.3 μM, after 8 h
Experimental: For analysis of progranulin protein expression, cell pellets were re-suspended in 150 μl of chilled RIPA Lysis Buffer supplemented with a protease-inhibitor cocktail and incubated for 15-20 minutes at 4° C. to allow for cell lysis. Total protein concentrations of each sample were determined by performing a BCA protein assay (Pierce). Quantitative determination of Progranulin protein levels was performed by ELISA (AdipoGen, Incheon, South Korea), using a 1:20 dilution of the cell lysate following the manufacturer protocol. Progranulin levels were expressed relative to protein amount, and compound treatment groups were expressed relative to the vehicle-treated group.
as §4

[11] = test system: progranulin mRNA in cerebral cortex; experiment: Progranulin mRNA expression in mouse cerebral cortex (qPCR); type: in vivo, C57BL/6 mice; details: normal mice, 100 mg/kg oral, 8 h after acute dosing
Experimental: as §6
RNA was extracted with Qiazol reagent using the RNeasy lipid-rich tissue kit from Qiagen (Valencia, Calif.) following manufacturer instructions. RNA was then transcribed into cDNA using the high capacity cDNA reverse transcription kit from Applied Biosystems (Carlsbad, Calif.), according to kit instructions. Relative progranulin gene expression was measured by quantitative PCR using mouse-specific probes (Applied Biosystems, Carlsbad, Calif.) for the granulin gene, and for Rp113a as a reference gene. The ΔΔCt method was used for calculations of relative gene expression levels (Pfaffl, Nucleic Acids Res., 2001). This method compares expression of the different genes (reference and gene of interest) in animals treated with vehicle versus the compound of the invention (FIG. 5A).

[12] = test system: progranulin protein in rat primary cortical neurons; experiment: Progranulin protein expression in rat primary cortical neurons (ELISA); type: cell-based; details: 3 μM, after 8 h
Experimental: as §5, §2

[13] = cancer patients, oral; cited from earlier work
[14] = test system: acetylation of histones in the brain; experiment: Acetylation of histones in the brain of mice, required free plasma exposure; type: in vivo

SMILES	increase in CSF progranulin protein ([1]; 4 h after acute dosing)	increase in plasma progranulin protein levels ([1]; concomitantly (4 h after acute dosing))	Maximum Tolerated Dose (MTD), not observed at highest dose used [2] [mg]	Kp ([3]; acute and repeated dosing, read-out: brain:plasma (b:p) ratio for drug levels)	increase in progranulin protein expression [4] [fold]	increase in progranulin mRNA [5] [fold]	increase in progranulin protein (western blot) ([6]; 0.3 μM) [fold]	increase in progranulin protein (western blot) ([6]; 3 μM) [fold]	increase in progranulin mRNA expression ([7]; 0.3 μM) [fold]	increase in progranulin mRNA expression ([7]; 3 μM) [fold]	increase in progranulin gene expression ([7]; lowest dose (0.1 μM), as soon as 4 h after treatment, sustained for 24 h) [%]	increase in progranulin protein levels in brain (cerebral cortex) [8]	increase in progranulin mRNA [9] [fold]	increase in progranulin protein expression [10] [fold]	increase in progranulin mRNA in brain (cerebral cortex) [11] [fold]	increase in progranulin protein expression [12] [fold]	Maximum Tolerated Dose (MTD) [13] [mg]	Kp ([3]; acute dosing experiments, read-out: brain:plasma (b:p) ratio)	excess of plasma protein unbound ('free') drug required to produce acetylation of histones in the brain, compared to Compound 1 [14] [fold]
O=C(NO)c1ccc(C2=Nc3ccccc3Oc3ccccc32)cc1 [Compound 1, (Z)-4-(dibenzo[b,f][1,4]oxazepin-11-yl)-N-hydroxybenzamide]	about 1.9 fold	about 1.4 fold	> 400	~5	1.5	1.3	1.3	1.6	~2	~5	~40	about 1.16 fold	2.4	1.1	1.45	1.77	–	–	–
O=C(CCCCCCC(=O)Nc1ccccc1)NO [SAHA]	–	–	–	–	–	–	–	–	–	–	–	–	–	–	–	–	400	~0.1	~30
